Measurements from patent publication US9232789B2, “Biostatic neutralizing composition for aqueous fluids” (ARKEMA FRANCE, priority 2010, dated 2016).

Columns and labels:
[1] = Test of neutralization (weight of amine necessary for neutralizing 100 g of oleic acid); format: physicochemical; settings: for Amount necessary for neutralizing 100 g of oleic acid: weight of amine per 100 g of oleic acid
Experimental: The neutralizing capacity is evaluated by determining the weight of amine (in grams) necessary for neutralizing 100 g of oleic acid. In this example, the neutralizing capacities of the following products are compared: • Amine (1) alone: monoethanolamine (MEoA); • Amine (2) alone: n-heptyldiethanolamine ([…]); • Mixture of amine (1)+amine (2): 70% by weight of MEoA+30% by weight of […].

[2] = system: Pseudomonas aeruginosa and Staphylococcus aureus; assay: Test of bacterial proliferation, bactericidal and/or bacteriostatic activity according to standard NF EN 1040; format: cell-based; parameters: key: +: low degree of reduction; ++++: high degree of reduction; settings: surviving bacteria counted after 5 minutes contact at 20° C.
Experimental: A test is carried out in order to evaluate the bactericidal and/or bacteriostatic activity of a sample of the composition of the invention, according to the standard NF EN 1040 (April 2006). A sample of a composition as it is (maximum concentration of the test: 80%) and/or diluted with water is added to a test suspension of bacteria (Pseudomonas aeruginosa and Staphylococcus aureus). The mixture is maintained at 20° C. for 5 minutes. An aliquote portion is removed at the end of this contact time; the bactericidal and/or bacteriostatic activity in this withdrawal is immediately neutralized or suppressed according to a validated method. The method used preferably is the dilution-neutralization method. Filtration over a membrane is used when it is not possible to find a suitable neutralizer. The surviving bacteria in each sample are counted, which makes it possible to calculate the degree of reduction, denoted by “+” (low degree of reduction) to “++++” (high degree of reduction) in table 2 below: […]

[3] = format: physicochemical
Excerpt: In this example, the following two amines are considered: • Amine (1) alone: methyldiethanolamine (MDEoA); • Amine (2) alone: n-heptyldiethanolamine (C7DEoA).
The appended FIG. 1 represents a ternary phase diagram between these 2 amines and water. The percentages are expressed by weight. The miscible mixtures are denoted by points (●), the immiscible mixtures are denoted by crosses (X).
The C7DEoA/water binary mixture is not miscible in all proportions. There is immiscibility when the C7DEoA is found in an amount of greater than 50%. In the area of immiscibility (amount of C7DEoA greater than 50%), the MDEoA acts as a coupling agent (co-solvent) when it is present in a content of greater than 15%.

NCCO [MEoA, monoethanolamine, reference compound]
Amount necessary for neutralizing 100 g of oleic acid [1]: 6.8 g
Degree of reduction [2]: +

n-heptyldiethanolamine [Composition C7DEoA]
neutralizing capacity (in words) ([1]; oleic acid neutralization): much lower
Amount necessary for neutralizing 100 g of oleic acid [1]: 36 g
amount of C7DEoA in C7DEoA/water binary mixture at which there is immiscibility [3]: greater than 50%
Degree of reduction [2]: ++++
